Results reported in US20120208809A1, “9H-PYRROLO[2,3-B: 5,4-C'] DIPYRIDINE AZACARBOLINE DERIVATIVES, PREPARATION THEREOF, AND THERAPEUTIC USE THEREOF” (SANOFI, priority 2009, published 2012).

How the values were obtained:
EOL-1 = test: Cell viability assay (CellTiter-Blue), EOL-1; format: cell-based; details: Homo sapiens, EOL1, read-out: EC50 EOL-1 μM (eosinophilic leukaemia), EOL-1 cells, read-out: EC50 EOL-1 μM (lymphoma);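 further: EOL-1 is an acute myeloid eosinophilic leukaemia line not a lymphoma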
Description: (§1) The representative compounds of the invention are also screened as regards their effects on cell proliferation and viability, using a variety of tumoral cell lines of human source, representative of different pathological indications. These cell lines include:
Models of Haematological Cancers: • TF-1 (acute myelogenic leukaemia; AML M6 at the time of diagnosis); • K G-1 (AML; erythroleukaemia evolving into AML); • KG-1a (AML; subclone derived from immature KG-1); • EOL-1 (AML: eosinophilic leukaemia); • PL-21 (AML; M3); • ML-2 (AML; T-NHL evolving into T-ALL evolving into AML M4); • HL-60 (AML, M3); • Kasumi-1 (AML); • GDM-1 (AML); • K-562 (CML—chronic myelogenic leukaemia; blastic crisis); • JURL-MK1 (CML; blastic crisis); • DND-41 (T-ALL—T-cell acute lymphoblastic leukaemia); • Jurkat (T-ALL); NALM-6 (B-ALL B-cell ALL); • CEM (ALL; lymphosarcoma evolving into ALL); • Jeko-1 (B-NHL—B-cell non-Hodgkin lymphoma; lymphoma with coat cells derived from a large-cell variant in leukaemic transformation); • WSU-DLCL2 (B-NHL; diffuse lymphoma with large B cells); • RL (B-NHL; undifferentiated diffuse); • OCl-Ly10 (B-NHL); • DoHH-2 (B-NHL); • RPMI-8226 (MM—multiple myelomas); • JVM-2 (B-CLL—B-cell chronic lymphocytic leukaemia); and • JVM-3 (B-CLL).
(§2) In order to measure the viability, the tumour cells are incubated in 96-well or 384-well format for 48, 72 or 96 hours, preferably 72 hours, with a compound of the invention at dilutions of a factor 3, with, in general, nine doses in total, the highest dose being equal to 10 μM or 30 μM. The cell viability is evaluated by adding CellTiter-Blue® (Promega, Madison, Wis., United States) for 4 hours and endpoint readings are taken using a SpectraMax Genmini EM plate reader (Molecular Devices, Sunnyvale, Calif., United States). The CellTiter-Blue® cell viability assay measures the ability of the cells in culture to reduce resazurin to resorufin, the intensity of the fluorescence signal being directly proportional to the number of live cells. The EC50 represents the concentration of compound that leads to a 50% reduction of the viability/proliferative expansion of the cells.

Pim-3 = target: T1, Pim-3 (Homo sapiens, UniProt Q86V86); test: TR-FRET assay of Pim kinase activity (phosphorylation of Bad Ser112), Pim-3; format: biochemical; details: ATP 40 μM, read-out: IC50 Pim3
T1 construct: full-length human recombinant His6-labelled Pim-1, Pim-2 or Pim-3 protein; His6; made in house
Method in brief: (§3)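 Full-length His6-tagged human Pim-1, -2 or -3 phosphorylate full-length His6-Bad at 40 μM ATP; phospho-Ser112 detected by TR-FRET (Eu anti-phosphoBad, APC anti-His6), 665/615 nm ratio. Compounds run at 10 concentrations in duplicate, typically top 30 μM; IC50 from 4-parameter logistic fit.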

CDK1 = CDK1 (Homo sapiens, UniProt P06493); test: Biochemical results, IC50 CDK1
CDK1, sequence (P06493 whole entry, species assumed): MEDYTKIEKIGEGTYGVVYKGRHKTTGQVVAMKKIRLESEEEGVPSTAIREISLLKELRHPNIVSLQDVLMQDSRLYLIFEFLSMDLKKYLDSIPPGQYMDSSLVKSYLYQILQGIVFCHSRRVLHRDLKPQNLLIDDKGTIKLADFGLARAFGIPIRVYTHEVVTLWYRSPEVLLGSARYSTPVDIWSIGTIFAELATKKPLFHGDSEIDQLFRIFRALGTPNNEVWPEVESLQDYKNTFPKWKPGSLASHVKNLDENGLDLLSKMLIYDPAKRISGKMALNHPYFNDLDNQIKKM
CDK1, sequence (P14635 whole entry partner, species assumed): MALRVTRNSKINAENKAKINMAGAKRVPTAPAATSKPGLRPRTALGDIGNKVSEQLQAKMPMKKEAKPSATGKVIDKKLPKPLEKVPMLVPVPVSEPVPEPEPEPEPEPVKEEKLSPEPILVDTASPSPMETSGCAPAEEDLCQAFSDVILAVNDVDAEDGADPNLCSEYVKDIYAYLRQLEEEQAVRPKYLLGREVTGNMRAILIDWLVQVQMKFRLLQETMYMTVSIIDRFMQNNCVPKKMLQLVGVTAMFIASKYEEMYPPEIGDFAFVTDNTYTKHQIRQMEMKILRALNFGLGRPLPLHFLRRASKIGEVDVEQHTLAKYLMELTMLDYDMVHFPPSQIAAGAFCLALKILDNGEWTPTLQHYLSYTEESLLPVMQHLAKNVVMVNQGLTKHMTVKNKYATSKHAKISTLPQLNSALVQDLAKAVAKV

Pim-2 = target: T2, Pim-2 (Homo sapiens, UniProt Q9P1W9); test: TR-FRET assay of Pim kinase activity (phosphorylation of Bad Ser112), Pim-2; format: biochemical; details: ATP 40 μM, read-out: IC50 Pim2
T2 construct: full-length human recombinant His6-labelled Pim-1, Pim-2 or Pim-3 protein; His6; made in house
T2 sequence (Q9P1W9 whole entry): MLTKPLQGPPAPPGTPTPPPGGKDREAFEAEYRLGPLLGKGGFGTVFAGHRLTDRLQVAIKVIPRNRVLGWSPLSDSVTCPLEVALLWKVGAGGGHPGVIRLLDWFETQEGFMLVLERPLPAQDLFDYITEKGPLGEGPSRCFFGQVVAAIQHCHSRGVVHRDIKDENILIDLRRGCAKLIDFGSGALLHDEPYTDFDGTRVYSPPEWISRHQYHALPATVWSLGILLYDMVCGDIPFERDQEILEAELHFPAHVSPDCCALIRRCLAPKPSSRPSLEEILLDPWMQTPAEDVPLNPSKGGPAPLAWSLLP
Method in brief: as §3

PLK1 = PLK1 (Homo sapiens, UniProt P53350); test: Biochemical results, IC50 PLK1
PLK1, sequence (P53350 whole entry, species assumed): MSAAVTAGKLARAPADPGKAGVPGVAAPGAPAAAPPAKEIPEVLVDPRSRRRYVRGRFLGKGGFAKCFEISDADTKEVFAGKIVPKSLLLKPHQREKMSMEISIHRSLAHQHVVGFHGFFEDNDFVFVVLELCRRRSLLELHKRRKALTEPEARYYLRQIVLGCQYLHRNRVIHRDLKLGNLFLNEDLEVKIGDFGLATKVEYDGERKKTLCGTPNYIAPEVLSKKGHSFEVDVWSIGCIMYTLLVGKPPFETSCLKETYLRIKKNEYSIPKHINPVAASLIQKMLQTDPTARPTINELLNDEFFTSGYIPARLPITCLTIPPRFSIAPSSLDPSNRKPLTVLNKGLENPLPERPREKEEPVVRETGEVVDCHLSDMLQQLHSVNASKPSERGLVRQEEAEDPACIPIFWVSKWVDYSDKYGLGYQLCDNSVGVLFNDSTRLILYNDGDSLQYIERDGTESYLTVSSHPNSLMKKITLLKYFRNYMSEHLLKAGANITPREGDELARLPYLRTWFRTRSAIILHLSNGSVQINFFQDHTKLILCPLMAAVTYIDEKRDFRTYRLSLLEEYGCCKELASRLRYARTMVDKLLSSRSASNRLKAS

Pim-1 = target: T3, Pim-1 (Homo sapiens, UniProt P11309); test: TR-FRET assay of Pim kinase activity (phosphorylation of Bad Ser112), Pim-1; format: biochemical; details: ATP 40 μM, read-out: IC50 Pim1
T3 construct: full-length human recombinant His6-labelled Pim-1, Pim-2 or Pim-3 protein; His6; made in house
T3 sequence (P11309 whole entry): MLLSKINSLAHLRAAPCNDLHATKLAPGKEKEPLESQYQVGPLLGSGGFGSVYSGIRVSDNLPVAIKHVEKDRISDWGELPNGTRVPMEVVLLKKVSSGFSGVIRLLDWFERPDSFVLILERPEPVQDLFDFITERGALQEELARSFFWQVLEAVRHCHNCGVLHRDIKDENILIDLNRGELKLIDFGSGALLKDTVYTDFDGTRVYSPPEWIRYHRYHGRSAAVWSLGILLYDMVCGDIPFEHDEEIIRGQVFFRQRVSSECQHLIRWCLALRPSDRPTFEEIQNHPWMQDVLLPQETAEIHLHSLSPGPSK
Method in brief: as §3

MV4-11 = test: Cell viability assay (CellTiter-Blue), MV4-11; format: cell-based; details: Homo sapiens, read-out: EC50 MV4-11 μM (acute myeloid leukemia), MV4-11 cells, read-out: EC50 MV4-11 μM (myeloma)
Description: as §1, §2

| SMILES | IC50 (Pim-3) | IC50 (CDK1) | IC50 (Pim-2) | IC50 (PLK1) | IC50 (Pim-1) | EC50 (MV4-11) | EC50 (EOL-1) |
| --- | --- | --- | --- | --- | --- | --- | --- |
| NC1(CNC(=O)c2ccc(-c3c(F)cnc4[nH]c5cnc(-c6cccnc6)cc5c34)cc2)CC1 [Example 89, N-[(1-aminocyclopropyl)methyl]-4-[3-fluoro-6-(pyridin-3-yl)-9H-pyrrolo[2,3-b:5,4-c′]dipyridin-4-yl]benzamide] | < 100 nM | 100 to 1000 nM | < 100 nM | 100 to 1000 nM | < 100 nM | 100 to 1000 nM | 100 to 1000 nM |
| CCNCCNC(=O)c1ccc(-c2c(F)cnc3[nH]c4cnc(-c5cccnc5)cc4c23)cc1 [Example 87, N-[2-(ethylamino)ethyl]-4-[3-fluoro-6-(pyridin-3-yl)-9H-pyrrolo[2,3-b:5,4-c′]dipyridin-4-yl]benzamide] | < 100 nM | 100 to 1000 nM | < 100 nM | 100 to 1000 nM | < 100 nM | 100 to 1000 nM | 100 to 1000 nM |
| CN1CC(NC(=O)c2ccc(-c3c(F)cnc4[nH]c5cnc(-c6cccnc6)cc5c34)cc2)C1 [Example 56, 4-[3-fluoro-6-(pyridin-3-yl)-9H-pyrrolo[2,3-b:5,4-c′]dipyridin-4-yl]-N-(1-methylazetidin-3-yl)benzamide] | < 100 nM | 100 to 1000 nM | < 100 nM | 100 to 1000 nM | < 100 nM | < 100 nM | < 100 nM |
| NCC(F)(F)CNC(=O)c1ccc(-c2c(F)cnc3[nH]c4cnc(-c5cccnc5)cc4c23)cc1 [Example 90, N-(3-amino-2,2-difluoropropyl)-4-[3-fluoro-6-(pyridin-3-yl)-9H-pyrrolo[2,3-b:5,4-c′]dipyridin-4-yl]benzamide] | < 100 nM | 100 to 1000 nM | 100 to 1000 nM | 100 to 1000 nM | < 100 nM | 100 to 1000 nM | 100 to 1000 nM |

More lines, main results first:

| IC50 (Pim-3) | IC50 (CDK1) | IC50 (Pim-2) | IC50 (PLK1) | IC50 (Pim-1) | EC50 (MV4-11) | SMILES | EC50 (EOL-1) |
| --- | --- | --- | --- | --- | --- | --- | --- |
| < 100 nM | 1000 to 5000 nM | < 100 nM | > 5000 nM | < 100 nM | 100 to 1000 nM | CN1CCC(NC(=O)c2ccc(-c3c(F)cnc4[nH]c5cnc(-c6cnn(C)c6Cl)cc5c34)cc2)CC1 [Example 107, 4-[6-(5-chloro-1-methyl-1H-pyrazol-4-yl)-3-fluoro-9H-pyrrolo[2,3-b:5,4-c′]dipyridin-4-yl]-N-(1-methylpiperidin-4-yl)benzamide] | 100 to 1000 nM |
| < 100 nM | 100 to 1000 nM | < 100 nM | 1000 to 5000 nM | < 100 nM | 100 to 1000 nM | CN1CCN(NC(=O)c2ccc(-c3c(F)cnc4[nH]c5cnc(-c6cnn(C)c6Cl)cc5c34)cc2)CC1 [Example 106, 4-[6-(5-chloro-1-methyl-1H-pyrazol-4-yl)-3-fluoro-9H-pyrrolo[2,3-b:5,4-c′]dipyridin-4-yl]-N-(4-methylpiperazin-1-yl)benzamide] | < 100 nM |
